According to US11517604B2, “Method for preparing Plectranthus amboinicus fraction having anti-arthritis activity” (ONENESS BIOTECH CO., priority 2011, dated 2022):

Tests used:
Assay type in all cases: cell-based, human
IFN-γ = experiment: PHA-induced IFN-γ release from PBMCs (ELISA); details: PHA + 0.1uM DEX; PHA alone 176.8, without PHA 25.0
Description: (§1) The peripheral blood mononuclear cells (PBMCs) from the blood of healthy adult donors were diluted and isolated by Ficoll-Paque (FP) gradient centrifugation (Amersham Biosciences) at 600 g for 30 min at room temperature. The isolated PBMCs were washed by phosphate buffered saline, re-suspended in 10% heat inactivated fetal bovine serum (FBS), and seeded in 96-well culture plate with a density of […] cells per well for assessing the anti-arthritis activity of the extracts as described herein.
(§2) PHA-induced PBMC proliferation was used as a technical platform for the assessment of anti-inflammation efficacy of various extracts of the present invention. Human PBMCs were co-cultured with PHA at a final concentration of 5 μg/mL and various extracts of Plectranthus amboinicus at a final concentration of 0˜90 μg/mL for 3 days. […] The absorbance of each well was detected by a photoelectric colorimeter at the wavelength of 540 nm. […] Three independent experiments were performed, and the data determined by MTT assays were further expressed as IC50.
(§3) On Day 3, cell supernatant was collected, divided, and stored at −20° C. until analysis. The amounts of TNF-α, interleukin IL-6, IFN-γ, and IL-5 in the supernatant were measured using Quantikine ELISA kits (R & D Systems, Minneapolis, Minn.) following the manufacturer's instruction.

IL-5 = experiment: PHA-induced IL-5 release from PBMCs (ELISA); details: PHA + 0.1uM DEX; PHA alone 161.9, without PHA 37.0
Description: as §1, §2, §3

IL-6 = experiment: PHA-induced IL-6 release from PBMCs (ELISA); details: PHA + 0.1uM DEX; PHA alone 703.0, without PHA 157
Description: as §1, §2, §3

[1] = test system: PHA-induced PBMC proliferation; experiment: Inhibition of PHA-induced PBMC proliferation (MTT assay); details: positive control 0.1 uM; PHA 5 μg/mL, 3 days; PHA alone 0.634, without PHA 0.245
Description: as §1
as §2, with “days. PBMCs treated by dexamethasone (DEX) before stimulation by PHA (5 μg/mL) were also included in the experiment as positive control samples. After cells were incubated for 3 days at 37° C. with humid air containing 5% CO2, MTT (methyl thiazolyl tetrazolium, MTT) assays were carried out to evaluate the proliferation rate of PBMCs.” for “days.”

TNF-α = experiment: PHA-induced TNF-α release from PBMCs (ELISA); details: PHA + 0.1uM DEX; PHA alone 4031.3, without PHA 271.6
Description: as §1, §2, §3

SMILES: C[C@@H]1C[C@H]2[C@@H]3CCC4=CC(=O)C=C[C@]4(C)[C@@]3(F)[C@@H](O)C[C@]2(C)[C@@]1(O)C(=O)CO [DEX, dexamethasone]
- Concentration of IFN-γ released from PBMCs (IFN-γ): 25 pg/mL
- Concentration of IL-5 released from PBMCs (IL-5): 37 pg/mL
- Concentration of IL-6 released from PBMCs (IL-6): 157 pg/mL
- PHA-induced PBMC proliferation, MTT assay data (absorbance 540 nm) [1]: 0.242
- Concentration of TNF-α released from PBMCs (TNF-α): 272.5 pg/mL
